Experimental data published in patent US20230295200A1 (REGENTS OF THE UNIVERSITY OF MICHIGAN, priority 2022, published 2023).
pKi: −log10 of the molar value.

What was measured:
STAT6 protein = molecular target: T1, STAT6 protein (Homo sapiens, UniProt P42226); experiment: Fluorescence polarization (FP) binding assay, STAT6; conditions: FP competition, 5 nM fluorescein-labeled tracer, 200 nM protein, PBS pH7.4; read-out: Binding STAT6
T1 sequence (P42226 1-847): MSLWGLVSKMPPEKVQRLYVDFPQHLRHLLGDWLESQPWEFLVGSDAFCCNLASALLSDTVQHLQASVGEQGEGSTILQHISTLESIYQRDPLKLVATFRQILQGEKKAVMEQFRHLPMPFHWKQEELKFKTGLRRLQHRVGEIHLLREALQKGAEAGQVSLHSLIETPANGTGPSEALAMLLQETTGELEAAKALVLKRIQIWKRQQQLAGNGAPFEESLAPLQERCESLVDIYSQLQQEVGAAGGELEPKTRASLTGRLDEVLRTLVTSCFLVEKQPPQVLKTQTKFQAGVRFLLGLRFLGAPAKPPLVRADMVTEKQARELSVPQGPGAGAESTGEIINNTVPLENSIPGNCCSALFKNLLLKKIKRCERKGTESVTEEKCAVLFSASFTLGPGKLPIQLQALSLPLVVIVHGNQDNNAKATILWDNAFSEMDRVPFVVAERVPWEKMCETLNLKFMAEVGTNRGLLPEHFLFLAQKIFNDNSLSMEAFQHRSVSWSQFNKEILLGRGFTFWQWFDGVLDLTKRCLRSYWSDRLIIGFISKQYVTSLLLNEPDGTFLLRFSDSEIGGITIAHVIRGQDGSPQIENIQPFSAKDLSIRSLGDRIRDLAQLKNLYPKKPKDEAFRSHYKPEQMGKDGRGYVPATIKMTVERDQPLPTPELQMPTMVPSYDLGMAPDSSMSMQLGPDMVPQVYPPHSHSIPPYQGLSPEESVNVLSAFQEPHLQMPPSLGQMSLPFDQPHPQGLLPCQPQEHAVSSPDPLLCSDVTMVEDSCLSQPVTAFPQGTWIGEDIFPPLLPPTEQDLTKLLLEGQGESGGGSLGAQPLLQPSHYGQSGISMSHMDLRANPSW
Method in brief: (§1)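 Polarization read after 1 h equilibration at room temperature (preceded by 15 min shaking) of 200 nM STAT5 and/or STAT6 with 5 nM fluorescein tracer. Buffer: PBS pH 7.4 plus 0.01% BGG, 0.01% Tween-20, 2 mM DTT; inhibition constants derived by nonlinear fitting.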

STAT5A = molecular target: T2, STAT5A (Homo sapiens, UniProt P42229); experiment: Fluorescence polarization (FP) binding assay, STAT5A; conditions: FP competition, 5 nM fluorescein-labeled tracer, 200 nM protein, PBS pH7.4
T2 sequence (P42229 1-794): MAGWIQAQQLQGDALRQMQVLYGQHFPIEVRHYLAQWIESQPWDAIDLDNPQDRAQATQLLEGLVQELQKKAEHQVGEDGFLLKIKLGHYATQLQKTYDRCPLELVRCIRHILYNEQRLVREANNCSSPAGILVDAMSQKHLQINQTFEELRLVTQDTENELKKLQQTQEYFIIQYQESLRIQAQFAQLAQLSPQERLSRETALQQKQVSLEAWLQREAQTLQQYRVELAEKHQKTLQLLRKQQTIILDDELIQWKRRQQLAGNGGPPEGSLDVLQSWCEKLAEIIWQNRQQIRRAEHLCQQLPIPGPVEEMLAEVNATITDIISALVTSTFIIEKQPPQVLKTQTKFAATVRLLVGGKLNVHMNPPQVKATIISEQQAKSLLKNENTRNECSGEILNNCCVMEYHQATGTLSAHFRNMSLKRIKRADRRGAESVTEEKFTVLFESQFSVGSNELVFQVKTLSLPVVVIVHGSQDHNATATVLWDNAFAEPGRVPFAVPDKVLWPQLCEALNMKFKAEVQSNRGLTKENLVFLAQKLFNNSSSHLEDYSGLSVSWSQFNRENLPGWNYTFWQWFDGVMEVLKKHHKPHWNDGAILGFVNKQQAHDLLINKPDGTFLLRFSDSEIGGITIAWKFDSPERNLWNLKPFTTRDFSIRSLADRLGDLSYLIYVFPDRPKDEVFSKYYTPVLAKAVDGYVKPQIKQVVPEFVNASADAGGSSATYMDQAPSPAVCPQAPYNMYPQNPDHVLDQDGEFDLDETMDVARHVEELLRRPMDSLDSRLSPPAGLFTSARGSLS
Method in brief: as §1

Row | Structure (SMILES) | pKi (STAT6 protein) | pKi (STAT5A)
1 | CC(C)(C)[C@H](NC(=O)c1cc2cc(C(F)(F)P(=O)(O)O)ccc2s1)C(=O)N1CCC[C@H]1C(=O)N1CC[C@@H]2CN(C(=O)c3ccc(F)cc3)C[C@@H]21 [Compound 86, (difluoro(2-(((S)-1-((S)-2-((3aR,6aR)-5-(4-fluorobenzoyl)octahydropyrrolo[3,4-b]pyrrole-1-carbonyl)pyrrolidin-1-yl)-3,3-dimethyl-1-oxobutan-2-yl)carbamoyl)benzo[b]thiophen-5-yl)methyl)phosphonic acid] | < 5.00 | < 5.00
2 | CC(=O)N1CC[C@@H]2CN(C(=O)[C@@H]3CCCN3C(=O)[C@@H](NC(=O)c3cc4cc(C(F)(F)P(=O)(O)O)ccc4s3)C(C)(C)C)C[C@@H]21 [Compound 87, ((2-(((S)-1-((S)-2-((3aR,6aR)-1-acetyloctahydropyrrolo[3,4-b]pyrrole-5-carbonyl)pyrrolidin-1-yl)-3,3-dimethyl-1-oxobutan-2-yl)carbamoyl)benzo[b]thiophen-5-yl)difluoromethyl)phosphonic acid] | < 5.00 | < 5.00
3 | CCCCC(=O)N1CC[C@@H]2CN(C(=O)[C@@H]3CCCN3C(=O)[C@@H](NC(=O)c3cc4cc(C(F)(F)P(=O)(O)O)ccc4s3)C(C)(C)C)C[C@@H]21 [Compound 88, ((2-(((S)-3,3-dimethyl-1-oxo-1-((S)-2-((3aR,6aR)-1-pentanoyloctahydropyrrolo[3,4-b]pyrrole-5-carbonyl)pyrrolidin-1-yl)butan-2-yl)carbamoyl)benzo[b]thiophen-5-yl)difluoromethyl)phosphonic acid] | < 5.00 | < 5.00
4 | CC(C)(C)[C@H](NC(=O)c1cc2cc(C(F)(F)P(=O)(O)O)ccc2s1)C(=O)N1CCC[C@H]1C(=O)N1C[C@H]2CCN(C(=O)c3ccc(F)cc3)[C@H]2C1 [Compound 89, (difluoro(2-(((S)-1-((S)-2-((3aR,6aR)-1-(4-fluorobenzoyl)octahydropyrrolo[3,4-b]pyrrole-5-carbonyl)pyrrolidin-1-yl)-3,3-dimethyl-1-oxobutan-2-yl)carbamoyl)benzo[b]thiophen-5-yl)methyl)phosphonic acid] | < 5.00 | < 5.00
5 | CC(=O)N1CC[C@H]2CCN(C(=O)[C@@H]3CCCN3C(=O)[C@@H](NC(=O)c3cc4cc(C(F)(F)P(=O)(O)O)ccc4s3)C(C)(C)C)[C@H]2C1 [Compound 90, ((2-(((S)-1-((S)-2-((3aS,7aR)-6-acetyloctahydro-1H-pyrrolo[2,3-c]pyridine-1-carbonyl)pyrrolidin-1-yl)-3,3-dimethyl-1-oxobutan-2-yl)carbamoyl)benzo[b]thiophen-5-yl)difluoromethyl)phosphonic acid] | < 5.00 | < 5.00
6 | CCCCC(=O)N1CC[C@H]2CCN(C(=O)[C@@H]3CCCN3C(=O)[C@@H](NC(=O)c3cc4cc(C(F)(F)P(=O)(O)O)ccc4s3)C(C)(C)C)[C@H]2C1 [Compound 91, ((2-(((S)-3,3-dimethyl-1-oxo-1-((S)-2-((3aS,7aR)-6-pentanoyloctahydro-1H-pyrrolo[2,3-c]pyridine-1-carbonyl)pyrrolidin-1-yl)butan-2-yl)carbamoyl)benzo[b]thiophen-5-yl)difluoromethyl)phosphonic acid] | < 5.00 | < 5.00
7 | CC(=O)N1C[C@@H]2CCN(C(=O)[C@@H]3CCCN3C(=O)[C@@H](NC(=O)c3cc4cc(C(F)(F)P(=O)(O)O)ccc4s3)C(C)(C)C)[C@@H]2C1 [Compound 92, ((2-(((S)-1-((S)-2-((3aS,6aS)-5-acetyloctahydropyrrolo[3,4-b]pyrrole-1-carbonyl)pyrrolidin-1-yl)-3,3-dimethyl-1-oxobutan-2-yl)carbamoyl)benzo[b]thiophen-5-yl)difluoromethyl)phosphonic acid] | < 5.00 | < 5.00
8 | CCCCC(=O)N1C[C@@H]2CCN(C(=O)[C@@H]3CCCN3C(=O)[C@@H](NC(=O)c3cc4cc(C(F)(F)P(=O)(O)O)ccc4s3)C(C)(C)C)[C@@H]2C1 [Compound 93, ((2-(((S)-3,3-dimethyl-1-oxo-1-((S)-2-((3aS,6aS)-5-pentanoyloctahydropyrrolo[3,4-b]pyrrole-1-carbonyl)pyrrolidin-1-yl)butan-2-yl)carbamoyl)benzo[b]thiophen-5-yl)difluoromethyl)phosphonic acid] | < 5.00 | < 5.00
9 | CC(C)(C)[C@H](NC(=O)c1cc2cc(C(F)(F)P(=O)(O)O)ccc2s1)C(=O)N1CCC[C@H]1C(=O)N1CC[C@H]2CN(C(=O)c3ccc(F)cc3)C[C@H]21 [Compound 94, (difluoro(2-(((S)-1-((S)-2-((3aS,6aS)-5-(4-fluorobenzoyl)octahydropyrrolo[3,4-b]pyrrole-1-carbonyl)pyrrolidin-1-yl)-3,3-dimethyl-1-oxobutan-2-yl)carbamoyl)benzo[b]thiophen-5-yl)methyl)phosphonic acid] | < 5.00 | < 5.00
10 | CC(=O)N1CC[C@H]2CN(C(=O)[C@@H]3CCCN3C(=O)[C@@H](NC(=O)c3cc4cc(C(F)(F)P(=O)(O)O)ccc4s3)C(C)(C)C)C[C@H]21 [Compound 95, ((2-(((S)-1-((S)-2-((3aS,6aS)-1-acetyloctahydropyrrolo[3,4-b]pyrrole-5-carbonyl)pyrrolidin-1-yl)-3,3-dimethyl-1-oxobutan-2-yl)carbamoyl)benzo[b]thiophen-5-yl)difluoromethyl)phosphonic acid] | < 5.00 | < 5.00
11 | CCCCC(=O)N1CC[C@H]2CN(C(=O)[C@@H]3CCCN3C(=O)[C@@H](NC(=O)c3cc4cc(C(F)(F)P(=O)(O)O)ccc4s3)C(C)(C)C)C[C@H]21 [Compound 96, ((2-(((S)-3,3-dimethyl-1-oxo-1-((S)-2-((3aS,6aS)-1-pentanoyloctahydropyrrolo[3,4-b]pyrrole-5-carbonyl)pyrrolidin-1-yl)butan-2-yl)carbamoyl)benzo[b]thiophen-5-yl)difluoromethyl)phosphonic acid] | < 5.00 | < 5.00
12 | CC(C)(C)[C@H](NC(=O)c1cc2cc(C(F)(F)P(=O)(O)O)ccc2s1)C(=O)N1CCC[C@H]1C(=O)N1C[C@@H]2CCN(C(=O)c3ccc(F)cc3)[C@@H]2C1 [Compound 97, (difluoro(2-(((S)-1-((S)-2-((3aS,6aS)-1-(4-fluorobenzoyl)octahydropyrrolo[3,4-b]pyrrole-5-carbonyl)pyrrolidin-1-yl)-3,3-dimethyl-1-oxobutan-2-yl)carbamoyl)benzo[b]thiophen-5-yl)methyl)phosphonic acid] | < 5.00 | < 5.00
13 | CC1(c2ccc(F)cc2)CN(C(=O)[C@@H]2CCCN2C(=O)[C@@H](NC(=O)c2cc3cc(C(F)(F)P(=O)(O)O)ccc3s2)C(C)(C)C)CCO1 (stereo partly drawn) [Compound 100, (difluoro(2-(((2S)-1-((2S)-2-(2-(4-fluorophenyl)-2-methylmorpholine-4-carbonyl)pyrrolidin-1-yl)-3,3-dimethyl-1-oxobutan-2-yl)carbamoyl)benzo[b]thiophen-5-yl)methyl)phosphonic acid] | 5.00 to 6.00 | < 5.00
